# Experimental data published in the supplement of paper PMC11616607.
# What was measured:
# Assay in all cases: drug sensitivity score (DSS) from 5-point dose-response viability curve (DSS (area-under-curve based score)); higher = more sensitive (stronger growth inhibition or killing); extreme values may be limits of the assay
# Details in all cases: exposure time: 72 h; concentration range: 5 concentrations over 10,000-fold range
# CAOV3 = test system: CAOV3
# In short: (§1)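 Each cell line and drug received a drug sensitivity score from Breeze software, where higher means more sensitive. Zero stands for no response. Scores came from CellTiter-Glo viability readings of ovarian cancer and normal ovarian cells, 1,500 per well in 384-well plates, after 3 days at 37°C, 5% CO2 with drugs at five concentrations over a 10,000-fold range.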
# COV318 = test system: COV318
# In short: as §1
# COV362 = test system: COV362
# In short: as §1
# HOSE1C = test system: HOSE1C
# In short: as §1
# HOSE2C = test system: HOSE2C
# In short: as §1
# JHOS2 = test system: JHOS2
# In short: as §1
# Kuramochi = test system: Kuramochi
# In short: as §1
# OV90 = test system: OV90
# In short: as §1
# OVCAR4 = test system: OVCAR4
# In short: as §1
# OVCAR5 = test system: OVCAR5
# In short: as §1
# OVCAR8 = test system: OVCAR8
# In short: as §1
# Ovsaho = test system: Ovsaho
# In short: as §1
Structure (SMILES),drug sensitivity score (CAOV3),drug sensitivity score (COV318),drug sensitivity score (COV362),drug sensitivity score (HOSE1C),drug sensitivity score (HOSE2C),drug sensitivity score (JHOS2),drug sensitivity score (Kuramochi),drug sensitivity score (OV90),drug sensitivity score (OVCAR4),drug sensitivity score (OVCAR5),drug sensitivity score (OVCAR8),drug sensitivity score (Ovsaho)
Cc1cc(F)c(C(=O)Nc2cccc(-c3nncn3C(C)C)n2)cc1-n1cnc(C2CC2)c1 [Selonsertib],0,0,0,0,0,0,0,0.1,0,0,0,0
Cn1cnc2c(F)c(Nc3ccc(Br)cc3Cl)c(C(=O)NOCCO)cc21 [Selumetinib],11.2,0,5.8,0.2,0,5.4,5.4,20.1,4.2,11.2,2.1,11.1
CN1CCN(C(=O)c2ccc3cc(CCNc4ncnc5ccc(C#N)cc45)ccc3c2)CC1 [Senexin B],0.2,0,0,0,0,0,2.6,0.5,1.1,1.7,0.2,1.3
Nc1nc2cc(-c3ccc4ncc(C(=O)N5CCOCC5)n4c3)ccc2o1 [Serabelisib],2.9,0,0,0,5.1,0,0,0.1,0,1.8,0,0.8
O=C(O)c1ccc2c(c1)nc(Nc1cccc(Cl)c1)c1ccncc12 [Silmitasertib],8.6,3.2,0.9,7.7,4.5,4.4,5.5,5.8,3.3,5.3,4.7,4.7
CCC(C)(C)C(=O)O[C@H]1C[C@@H](C)C=C2C=C[C@H](C)[C@H](CC[C@@H]3C[C@@H](O)CC(=O)O3)[C@H]21 [Simvastatin],0.1,0,0.4,8.7,8.8,0.2,1.3,1.5,0.7,0,2.9,3.5
CO[C@H]1C[C@@H]2CC[C@@H](C)[C@@](O)(O2)C(=O)C(=O)N2CCCC[C@H]2C(=O)O[C@H]([C@H](C)C[C@@H]2CC[C@@H](O)[C@H](OC)C2)CC(=O)[C@H](C)/C=C(\C)[C@@H](O)[C@@H](OC)C(=O)[C@H](C)C[C@H](C)/C=C/C=C/C=C/1C [Sirolimus],3.9,1.2,0,4.8,0,3.6,3.8,7.7,1.9,4.3,4,4.4
COCCNCc1ccc(-c2cc3nccc(Oc4ccc(NC(=O)C5(C(=O)Nc6ccc(F)cc6)CC5)cc4F)c3s2)nc1 [Sitravatinib],1.9,0.5,2.3,2.6,3.3,1.2,2.5,1.6,0.7,4.5,0.5,0
Cc1c(C(=O)Nc2ccc(N3C[C@@H](C)O[C@@H](C)C3)nc2)cccc1-c1ccc(OC(F)(F)F)cc1 [Sonidegib],0,2.6,0,1.6,1.8,2.2,4.7,1.3,0.2,1.2,3.3,2.5
C=CCN(/C=C1/C(=O)O[C@H](COC)[C@@]2(C)C1=C(O)C(=O)C1=C2[C@H](OC(C)=O)C[C@]2(C)C(=O)CC[C@@H]12)CC=C [Sonolisib],0,0,0,0,0.6,0,0,0,0,0,0,0
CNC(=O)c1cc(Oc2ccc(NC(=O)Nc3ccc(Cl)c(C(F)(F)F)c3)cc2)ccn1 [Sorafenib],0,0,0,0,0,0,0,0,0,0,0,0
CN1CCN(c2nc(C3=C(c4c[nH]c5ccccc45)C(=O)NC3=O)c3ccccc3n2)CC1 [Sotrastaurin],1.2,0,1.5,0,0,0.2,0,0,0,0,0.1,0
C=CC(=O)Nc1cccc(Nc2nc(Nc3ccc(OCCOC)cc3)ncc2F)c1 [Spebrutinib],0.3,2,0.9,0,0.4,1.9,1.6,1.3,2,1.2,0,2.2
CC(C)n1cnc2c(NCCc3ccc(O)cc3)nc(-c3csc4ccccc34)nc21 [StemRegenin 1],0,1.1,2,3.8,2.2,1,1.3,1.2,1.1,4.2,1.6,1.8
CCN(CC)CCNC(=O)c1c(C)[nH]c(/C=C2\C(=O)Nc3ccc(F)cc32)c1C [Sunitinib],0,0,0,0,0,0.1,0,0,0,0,0,0
CC(C)(O)CC(=O)NCCn1ccc2ncnc(Nc3ccc(Oc4cccc(C(F)(F)F)c4)c(Cl)c3)c21 [TAK-285],2.5,0,0.2,0,0,0,0.9,0,0,2,0.1,0.2
CCS(=O)(=O)c1cccc(-c2cc(C(=O)NC3CCN(C)CC3)c(C)c3[nH]c4ncc(C)cc4c23)c1 [TAK-901],16.9,1.4,1.1,3.5,7.4,1.2,6.8,4.6,5.8,4.7,2.8,7.5
Cc1cccc(-c2[nH]c(CNc3ccccc3F)nc2-c2ccc3ncnn3c2)n1 [TEW-7197],0,0,5,0,0.9,0,0,0,0,1.3,0.1,0
Nc1nc(N)c2nc(-c3cccc(O)c3)c(-c3cccc(O)c3)nc2n1 [TG100-115],0.3,0,0.9,0,0,0,1.2,0,2.3,0.4,0,0
Cc1cc(C(C)Nc2ccccc2)c2nc(N3CCOCC3)cc(=O)n2c1 (configuration not stated) [TGX-221],0.8,0,0.3,0,0,0,7.9,0.2,1.7,2.1,1.2,7.8
Nc1nc(NC2CC2)cc(-c2cccc(Cl)c2Cl)n1 [TH588],1.9,0.9,0.4,0,0,0,1.6,0,1.8,1.9,2.4,3.7
Clc1ccccc1C(c1ccccc1)(c1ccccc1)n1cccn1 [TRAM-34],0,0,0,0,0,0,0,0,0,5,0,0
CC(=O)Nc1ccc(C(=O)Nc2ccccc2N)cc1 [Tacedinaline],0,0,0,0.6,0.7,0,1.7,1.1,0.1,3.4,0,0
C=CC[C@@H]1/C=C(\C)C[C@H](C)C[C@H](OC)[C@H]2O[C@@](O)(C(=O)C(=O)N3CCCC[C@H]3C(=O)O[C@H](/C(C)=C/[C@@H]3CC[C@@H](O)[C@H](OC)C3)[C@H](C)[C@@H](O)CC1=O)[C@H](C)C[C@@H]2OC [Tacrolimus],0.5,0,0.1,0.3,0,1.8,1,0,0.3,0.5,3.4,0.7
CN(C(=O)c1ccc(F)cc1C(F)(F)F)C1CCN(c2nnc(-c3ccnn3C)c3ccccc23)CC1 [Taladegib],0,0.1,0,0,0,0,0,0,0,0.2,0,0
Cn1ncnc1[C@H]1c2n[nH]c(=O)c3cc(F)cc(c23)N[C@@H]1c1ccc(F)cc1 [Talazoparib],4.1,3.1,0,10.1,8.7,3,4.3,5.1,1.9,3.2,5.7,4
